# From PubChem BioAssay AID743481 (Broad Institute, 2014)
# Active and inactive are the calls of the source.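 The calls were made as follows: active = compounds lowering cell ATP signal whose fitted AC50 is at most twice their highest tested dose; inconclusive = flat curve with moderate signal loss, or unreliable fit; inactive = the rest.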
# Test system: HEK293T viability, ATP luminescence, 72 h
# Test: HEK293T viability reduction via ATP content – cell-based, CellTiter-Glo luminescence, dry powder, cytotoxicity control, dose response (AID 743481)
# Details: not given
row,Compound,AC50
1,C[C@@H]1CN([C@@H](C)CO)C(=O)c2cc(NC(=O)C3CCCCC3)ccc2O[C@@H](C)CCCCO[C@H]1CN(C)C(=O)Nc1cccc2ccccc12,7.74 µM
2,C[C@H]1CCCCO[C@@H](CN(C)S(=O)(=O)c2ccc(Cl)cc2)[C@@H](C)CN([C@@H](C)CO)C(=O)c2cc(NC(=O)NC3CCCCC3)ccc2O1,15.8 µM
3,COc1ccc(S(=O)(=O)N(C)C[C@@H]2OCCCC[C@H](C)Oc3ccc(NS(=O)(=O)c4ccc(Cl)cc4)cc3C(=O)N([C@@H](C)CO)C[C@@H]2C)cc1,16.4 µM
4,C[C@H](CO)N1C[C@H](C)[C@H](CN(C)C(=O)Nc2ccc(C(F)(F)F)cc2)OCCCC[C@H](C)Oc2ccc(NC(=O)CCC(F)(F)F)cc2C1=O,> 52 µM (inactive)

# Test system: not listed separately
# Test: as above
# Details: HEK293T viability, ATP luminescence, 72 h; at 26 µM (top of the series)
row,Compound,"activity change, negative = cytotoxicity"
1,C[C@H]1CCCCO[C@@H](CN(C)C(=O)Nc2ccccc2)[C@@H](C)CN([C@@H](C)CO)C(=O)c2cc(NC(=O)NC3CCCCC3)ccc2O1,3.42% (inactive)
2,C[C@@H]1CCCCO[C@@H](CN(C)C(=O)Nc2cccc3ccccc23)[C@@H](C)CN([C@@H](C)CO)C(=O)c2cc(NC(=O)C3CCCCC3)ccc2O1,-16.3% (inactive)
3,CC(C)(C)c1ccc(-c2nc(-c3ccncc3)no2)cc1,-16.3% (inactive)
4,C[C@H](CO)N1C[C@H](C)[C@H](CN(C)C(=O)Nc2ccc(F)cc2)OCCCC[C@H](C)Oc2ccc(NC(=O)NC3CCCCC3)cc2C1=O,-9.87% (inactive)
5,COc1ccc(NC(=O)N(C)C[C@@H]2OCCCC[C@H](C)Oc3ccc(NC(=O)NC4CCCCC4)cc3C(=O)N([C@H](C)CO)C[C@@H]2C)cc1,-10.6% (inactive)
6,C[C@H](CO)N1C[C@H](C)[C@H](CN(C)C(=O)Nc2ccccc2)OCCCC[C@H](C)Oc2ccc(NC(=O)C3CCCCC3)cc2C1=O,-9.15% (inactive)
7,C[C@@H]1CCCCO[C@H](CN(C)C(=O)Nc2cccc3ccccc23)[C@@H](C)CN([C@@H](C)CO)C(=O)c2cc(NC(=O)C3CCCCC3)ccc2O1,6.63% (inactive)
8,C[C@H](CO)N1C[C@H](C)[C@H](CN(C)C(=O)Nc2ccc(C(F)(F)F)cc2)OCCCC[C@H](C)Oc2ccc(NC(=O)NC3CCCCC3)cc2C1=O,5.48% (inactive)
9,CC(=O)Nc1ccc2c(c1)C(=O)N([C@H](C)CO)C[C@H](C)[C@H](CN(C)C(=O)Nc1ccc(F)cc1)OCCCC[C@H](C)O2,-16.5% (inactive)
10,C[C@H](CO)N1C[C@H](C)[C@H](CN(C)C(=O)Nc2ccc(F)cc2)OCCCC[C@H](C)Oc2ccc(NC(=O)C3CC3)cc2C1=O,-1.35% (inactive)
11,C[C@@H]1CCCCO[C@@H](CN(C)C(=O)Nc2cccc3ccccc23)[C@@H](C)CN([C@H](C)CO)C(=O)c2cc(NC(=O)C3CCCCC3)ccc2O1,-15.4% (inactive)
12,C[C@@H]1CCCCO[C@H](CN(C)C(=O)Nc2cccc3ccccc23)[C@H](C)CN([C@H](C)CO)C(=O)c2cc(NC(=O)C3CCCCC3)ccc2O1,3.66% (inactive)
13,C[C@H](CO)N1C[C@H](C)[C@H](CN(C)C(=O)Nc2ccc(F)cc2)OCCCC[C@H](C)Oc2ccc(NC(=O)Nc3ccccc3)cc2C1=O,-10.5% (inactive)
14,C[C@H](CO)N1C[C@H](C)[C@H](CN(C)C(=O)Nc2ccc(F)cc2)OCCCC[C@H](C)Oc2ccc(NC(=O)C3CCCCC3)cc2C1=O,-7.09% (inactive)
15,C[C@H](CO)N1C[C@H](C)[C@H](CN(C)C(=O)Nc2ccc(F)cc2)OCCCC[C@H](C)Oc2ccc(NC(=O)C3CCC3)cc2C1=O,-3.85% (inactive)
16,C[C@H](CO)N1C[C@H](C)[C@H](CN(C)C(=O)Nc2ccc(Cl)cc2)OCCCC[C@H](C)Oc2ccc(NC(=O)C3CCCCC3)cc2C1=O,-12.5% (inactive)
17,C[C@H](CO)N1C[C@H](C)[C@@H](CN(C)C(=O)Nc2cccc3ccccc23)OCCCC[C@H](C)Oc2ccc(NC(=O)C3CCCCC3)cc2C1=O,-7.19% (inactive)
18,C[C@H](CO)N1C[C@H](C)[C@H](CN(C)C(=O)Nc2ccccc2F)OCCCC[C@H](C)Oc2ccc(NC(=O)C3CCCCC3)cc2C1=O,-11.7% (inactive)
19,C[C@@H]1CCCCO[C@@H](CN(C)C(=O)Nc2cccc3ccccc23)[C@H](C)CN([C@@H](C)CO)C(=O)c2cc(NC(=O)C3CCCCC3)ccc2O1,-12.5% (inactive)
20,C[C@@H]1CN([C@@H](C)CO)C(=O)c2cc(NC(=O)C3CCCCC3)ccc2O[C@@H](C)CCCCO[C@@H]1CN(C)C(=O)Nc1cccc2ccccc12,-17% (inactive)
21,C[C@H](CO)N1C[C@H](C)[C@H](CN(C)C(=O)Nc2ccc3c(c2)OCO3)OCCCC[C@H](C)Oc2ccc(NC(=O)C3CCCCC3)cc2C1=O,2.78% (inactive)
22,C[C@H](CO)N1C[C@H](C)[C@H](CN(C)C(=O)Nc2ccc(F)cc2)OCCCC[C@H](C)Oc2ccc(NC(=O)C3CCCC3)cc2C1=O,9.39% (inactive)

row,Compound,"activity change, negative = cytotoxicity"
1,C[C@H](CO)N1C[C@H](C)[C@H](CN(C)C(=O)Nc2cccc3ccccc23)OCCCC[C@H](C)Oc2ccc(NC(=O)C3CCCCC3)cc2C1=O,-4.95% (inactive)
2,C[C@H](CO)N1C[C@H](C)[C@H](CN(C)C(=O)Nc2cccc(F)c2)OCCCC[C@H](C)Oc2ccc(NC(=O)C3CCCCC3)cc2C1=O,9.35% (inactive)
3,C[C@@H]1CCCCO[C@@H](CN(C)C(=O)Nc2cccc3ccccc23)[C@H](C)CN([C@H](C)CO)C(=O)c2cc(NC(=O)C3CCCCC3)ccc2O1,-11.7% (inactive)
4,C[C@H](CO)N1C[C@H](C)[C@H](CN(C)C(=O)Nc2cccc3ccccc23)OCCCC[C@H](C)Oc2ccc(NC(=O)c3ccccc3)cc2C1=O,-8.78% (inactive)
5,Cc1ccc(NC(=O)N(C)C[C@@H]2OCCCC[C@H](C)Oc3ccc(NC(=O)C4CCCCC4)cc3C(=O)N([C@H](C)CO)C[C@@H]2C)cc1,9.91% (inactive)
6,C[C@H](CO)N1C[C@H](C)[C@H](CN(C)C(=O)Nc2ccc3ccccc3c2)OCCCC[C@H](C)Oc2ccc(NC(=O)C3CCCCC3)cc2C1=O,7.21% (inactive)
7,C[C@H](CO)N1C[C@H](C)[C@H](CN(C)C(=O)Nc2cccc3ccccc23)OCCCC[C@H](C)Oc2ccc(NC(=O)NC3CCCCC3)cc2C1=O,-18.8% (inactive)
8,C[C@H](CO)N1C[C@H](C)[C@H](CN(C)C(=O)Nc2ccccc2)OCCCC[C@H](C)Oc2ccc(NC(=O)NC3CCCCC3)cc2C1=O,-8.51% (inactive)
9,C[C@H]1CCCCO[C@@H](CN(C)C(=O)Nc2cccc3ccccc23)[C@@H](C)CN([C@@H](C)CO)C(=O)c2cc(NC(=O)C3CCCCC3)ccc2O1,-14.3% (inactive)
10,C[C@H](CO)N1C[C@H](C)[C@H](CN(C)C(=O)Nc2ccccc2)OCCCC[C@H](C)Oc2ccc(NC(=O)CCC(F)(F)F)cc2C1=O,-6.87% (inactive)
11,C[C@H](CO)N1C[C@H](C)[C@H](CN(C)C(=O)Nc2ccccc2)OCCCC[C@H](C)Oc2ccc(NC(=O)Nc3ccc4c(c3)OCO4)cc2C1=O,-5.94% (inactive)
12,C[C@H](CO)N1C[C@H](C)[C@H](CN(C)C(=O)Nc2ccc(F)cc2)OCCCC[C@H](C)Oc2ccc(NC(=O)Nc3ccc(F)cc3)cc2C1=O,-12.4% (inactive)
13,C[C@H](CO)N1C[C@H](C)[C@H](CN(C)C(=O)Nc2ccc3c(c2)OCO3)OCCCC[C@H](C)Oc2ccc(NC(=O)NC3CCCCC3)cc2C1=O,-11.1% (inactive)
14,C[C@H](CO)N1C[C@H](C)[C@H](CN(C)C(=O)Nc2ccccc2)OCCCC[C@H](C)Oc2ccc(NC(=O)Nc3ccccc3)cc2C1=O,0.603% (inactive)
15,COc1ccc(NC(=O)N(C)C[C@@H]2OCCCC[C@H](C)Oc3ccc(NC(=O)C4CCCCC4)cc3C(=O)N([C@H](C)CO)C[C@@H]2C)cc1,-7.25% (inactive)
16,C[C@H]1CCCCO[C@@H](CN(C)C(=O)Nc2ccc(F)cc2)[C@@H](C)CN([C@@H](C)CO)C(=O)c2cc(NC(=O)C3CCCCC3)ccc2O1,-15.6% (inactive)
17,C[C@@H]1CCCCO[C@H](CN(C)C(=O)Nc2cccc3ccccc23)[C@@H](C)CN([C@H](C)CO)C(=O)c2cc(NC(=O)C3CCCCC3)ccc2O1,-3.68% (inactive)
18,C[C@H](CO)N1C[C@H](C)[C@H](CN(C)C(=O)Nc2ccc(F)cc2)OCCCC[C@H](C)Oc2ccc(NC(=O)C3CCOCC3)cc2C1=O,-1.32% (inactive)
19,C[C@H](CO)N1C[C@H](C)[C@H](CN(C)C(=O)Nc2ccc(F)cc2)OCCCC[C@H](C)Oc2ccc(NC(=O)C3CCCCCC3)cc2C1=O,-6.61% (inactive)
20,C[C@H](CO)N1C[C@H](C)[C@H](CN(C)C(=O)Nc2cccc3ccccc23)OCCCC[C@H](C)Oc2ccc(NC(=O)CCC(F)(F)F)cc2C1=O,24.6% (inactive)
21,C[C@@H]1CCCCO[C@H](CN(C)C(=O)Nc2cccc3ccccc23)[C@H](C)CN([C@@H](C)CO)C(=O)c2cc(NC(=O)C3CCCCC3)ccc2O1,-10.3% (inactive)
22,C[C@H]1CCCCO[C@@H](CN(C)C(=O)Nc2ccc3c(c2)OCO3)[C@@H](C)CN([C@@H](C)CO)C(=O)c2cc(NC(=O)NC3CCCCC3)ccc2O1,-7.34% (inactive)
